“And” between values parts separate entries of the source, which are not always exact repeats. Identical values can stand only once. One block for each compound: values may come before it.
Experiments:
[1] = Metabolite profile in rat urine; type: in vivo, male Sprague-Dawley rats; details: for % AD (percent of administered dose) / % HPLC (percent of HPLC peak area in the sample extract): group 1C (IV dose) pooled urine; for % of total urinary excretion / Total % AD: group 1C (IV dose) urine; for Total % AD: total of all collections
Description: Pooled urine samples were prepared for Groups 1C and 2C by mixing a fixed percent of the total volume for all four animals from the selected time points. For Group 1C, samples of the 1-, 2-, 6-, and 24-h collection intervals were pooled. For Group 2C, a pool of samples from all four animals was prepared for the 24 h collection intervals only. For 1-, 2-, and 6 h collection intervals, a urine sample of a single animal of Group 2A or 2B was used for analysis. All samples were brought to room temperature and vortexed briefly. The samples were diluted as necessary (2- to 20-fold) with appropriate aqueous mobile phase for the selected HPLC method. The pooled and diluted samples from the 24 h collection interval were centrifuged at 2040×g for 10 minutes. All other samples were analyzed without centrifugation. HPLC method 1 was used for HPLC profiling. Selected samples were analyzed by HPLC method 2 for comparison with the metabolite profile generated by microsomal and hepatocyte incubations (Examples 14 and 15) and with the metabolite profile of liver extracts.
Percent of the administered dose (% AD) for parent drug and each metabolite at each collection period=(% of the total radioactivity in the sample attributed to the metabolite)*(total radioactivity expressed as % of the administered dose, recovered during the corresponding collection period).
HPLC analyses of pooled urine samples of all time points were conducted for Group 1C. Metabolites R1, R2, R3, R4, R5, R6, R7 and R8 were characterized based on retention time.
For the PO dose group, a pooled urine sample from the 24-h collection time was analyzed. For 1-, 2-, and 6-h collection times, the majority of the samples had been used for radioanalysis. The remaining samples were insufficient for proportional pooling. Therefore, single animal samples of […] groups were used for HPLC profiling. Metabolites R^1, R^2, R^3, R^4, R^5, R^6, R^7 and R^8 were characterized based on retention time.
Table 50 contains data from single animal samples and pooled samples. To estimate overall distribution of urinary metabolites, it was assumed that the profile from a single animal is reflective of the overall average metabolite profile. Therefore, HPLC distribution data from single animals was used to calculate the percentage of administered dose excreted as various metabolites during the 1-, 2-, and 6-h collection intervals. Metabolites R1, R2, R3, R4, R5, R6, R7 and R8 were characterized based on retention time.

[2] = Rat plasma pharmacokinetics of total radioactivity after [^14C]-Compound 1; type: in vivo, male Sprague-Dawley rats; details: for Plasma total radioactivity concentration, Mean: group mean; for Plasma total radioactivity concentration: individual rats; for AUC0-24 of plasma total radioactivity: from average concentrations
Description: A preliminary rat metabolism study was conducted with radiolabeled Compound 1. The compound was labeled with [^14C] in the C-8 position of the guanine moiety. The objectives of the study were to determine, 1) the plasma pharmacokinetics of total radioactivity, 2) the time-course of total radioactivity and the amount of 2′-C-methyl guanosine-5′-TP in liver, 3) the major route of excretion, and 4) the metabolic profile in excreta, liver, and plasma.
Isotopically diluted [^14C]-Compound 1 was administered intravenously to male Sprague-Dawley rats at 50 mg/kg or by oral gavage at 100 mg/kg.
The plasma concentration-time data for total radioactivity was analyzed using Microsoft® Office Excel 2003 to obtain the area under the concentration-time curve (AUC). AUC0-24 (area under the concentration-time curve from 0 to 24 h after dosing) was calculated using the linear trapezoidal rule and nominal sampling times. For the IV dose group, concentration at time zero was extrapolated from the concentration data for the first two time points. The maximum (peak) plasma concentrations (Cmax) and the time to peak concentrations (tmax) were the observed values. Descriptive statistics were prepared in Excel.
Radioanalyses of plasma samples were conducted. The plasma concentration data for total radioactivity expressed as μg equivalents/mL are summarized below: […]

% AD (percent of administered dose) ([1]; 1 h collection): 0.05 % AD
% HPLC (percent of HPLC peak area in the sample extract) ([1]; 1 h collection): 0.24%
% AD (percent of administered dose) ([1]; 2 h collection): 0.05 % AD
% HPLC (percent of HPLC peak area in the sample extract) ([1]; 2 h collection): 1.01%
% AD (percent of administered dose) ([1]; 6 h collection): 0.01 % AD
% HPLC (percent of HPLC peak area in the sample extract) ([1]; 6 h collection): 0.37%
% of total urinary excretion [1]: 0.25%
Total % AD [1]: 0.12 % AD
Structure (SMILES): CC(C)(CO)C(=O)SCCOP(N)(=O)OC[C@H]1O[C@@H](n2cnc3c(=O)[nH]c(N)nc32)[C@](C)(O)[C@@H]1O (single isomer, unassigned; diastereomer 1) [Compd 3 Diastereomer 1]

% AD (percent of administered dose) ([1]; 1 h collection): 0.23 % AD
% HPLC (percent of HPLC peak area in the sample extract) ([1]; 1 h collection): 1.00%
% AD (percent of administered dose) ([1]; 2 h collection): 0.14 % AD
% HPLC (percent of HPLC peak area in the sample extract) ([1]; 2 h collection): 2.69%
% AD (percent of administered dose) ([1]; 6 h collection): 0.03 % AD
% HPLC (percent of HPLC peak area in the sample extract) ([1]; 6 h collection): 1.19%
% of total urinary excretion [1]: 0.84%
Total % AD [1]: 0.39 % AD
Structure (SMILES): CC(C)(CO)C(=O)SCCOP(N)(=O)OC[C@H]1O[C@@H](n2cnc3c(=O)[nH]c(N)nc32)[C@](C)(O)[C@@H]1O (single isomer, unassigned; diastereomer 2) [Compd 3 Diastereomer 2]

Structure (SMILES): CC(C)(CO)C(=O)SCCOP(=O)(NCc1ccccc1)OC[C@H]1O[C@@H](n2cnc3c(=O)[nH]c(N)nc32)[C@](C)(O)[C@@H]1O (stereo partly shown) [[^14C] Compound 1]
Plasma total radioactivity concentration, Mean ([2]; IV 50 mg/kg, 0 h (pre-dose)): 0.000 μg Equivalents/mL
Plasma total radioactivity concentration, Mean ([2]; IV 50 mg/kg, 0.083 h): 43.692 μg Equivalents/mL
Plasma total radioactivity concentration, Mean ([2]; IV 50 mg/kg, 0.25 h): 9.195 μg Equivalents/mL
Plasma total radioactivity concentration, Mean ([2]; IV 50 mg/kg, 0.5 h): 4.311 μg Equivalents/mL
Plasma total radioactivity concentration, Mean ([2]; IV 50 mg/kg, 0.75 h): 1.835 μg Equivalents/mL
Plasma total radioactivity concentration, Mean ([2]; IV 50 mg/kg, 1 h): 1.399 μg Equivalents/mL
Plasma total radioactivity concentration, Mean ([2]; IV 50 mg/kg, 2 h): 2.175 μg Equivalents/mL
Plasma total radioactivity concentration, Mean ([2]; IV 50 mg/kg, 4 h): 0.799 μg Equivalents/mL
Plasma total radioactivity concentration, Mean ([2]; IV 50 mg/kg, 6 h): 2.652 μg Equivalents/mL
Plasma total radioactivity concentration, Mean ([2]; IV 50 mg/kg, 10 h): 0.605 μg Equivalents/mL
Plasma total radioactivity concentration, Mean ([2]; IV 50 mg/kg, 24 h): 0.570 μg Equivalents/mL
Plasma total radioactivity concentration ([2]; IV 50 mg/kg, Group 1A, 0.25 h, 50 mg/kg): 10.883 μg Equivalents/mL and 9.006 μg Equivalents/mL and 7.913 μg Equivalents/mL and 8.978 μg Equivalents/mL
Plasma total radioactivity concentration ([2]; IV 50 mg/kg, Group 1A, 1 h, 50 mg/kg): 1.371 μg Equivalents/mL and 1.358 μg Equivalents/mL and 1.600 μg Equivalents/mL and 1.267 μg Equivalents/mL
Plasma total radioactivity concentration ([2]; IV 50 mg/kg, Group 1A, 2 h, 50 mg/kg): 2.202 μg Equivalents/mL and 1.861 μg Equivalents/mL and 2.545 μg Equivalents/mL and 2.092 μg Equivalents/mL
Plasma total radioactivity concentration ([2]; IV 50 mg/kg, Group 1B, 0 h (pre-dose)): 0.000 μg Equivalents/mL
Plasma total radioactivity concentration ([2]; IV 50 mg/kg, Group 1B, 0.75 h, 50 mg/kg): 1.576 μg Equivalents/mL and 1.600 μg Equivalents/mL and 1.710 μg Equivalents/mL and 2.454 μg Equivalents/mL
Plasma total radioactivity concentration ([2]; IV 50 mg/kg, Group 1B, 4 h, 50 mg/kg): 0.755 μg Equivalents/mL and 0.713 μg Equivalents/mL and 0.938 μg Equivalents/mL and 0.790 μg Equivalents/mL
Plasma total radioactivity concentration ([2]; IV 50 mg/kg, Group 1B, 6 h, 50 mg/kg): 2.376 μg Equivalents/mL and 2.233 μg Equivalents/mL and 2.160 μg Equivalents/mL and 3.837 μg Equivalents/mL
Plasma total radioactivity concentration ([2]; IV 50 mg/kg, Group 1C, 0.083 h, 50 mg/kg): 50.653 μg Equivalents/mL and 45.178 μg Equivalents/mL and 35.246 μg Equivalents/mL and 37.600 μg Equivalents/mL
Plasma total radioactivity concentration ([2]; IV 50 mg/kg, Group 1C, 0.5 h, 50 mg/kg): 4.824 μg Equivalents/mL and 4.036 μg Equivalents/mL and 4.072 μg Equivalents/mL and 3.857 μg Equivalents/mL
Plasma total radioactivity concentration ([2]; IV 50 mg/kg, Group 1C, 10 h, 50 mg/kg): 0.566 μg Equivalents/mL and 0.675 μg Equivalents/mL and 0.573 μg Equivalents/mL and 0.562 μg Equivalents/mL
Plasma total radioactivity concentration ([2]; IV 50 mg/kg, Group 1C, 24 h, 50 mg/kg): 0.515 μg Equivalents/mL and 0.759 μg Equivalents/mL and 0.553 μg Equivalents/mL and 0.453 μg Equivalents/mL
AUC0-24 of plasma total radioactivity ([2]; IV 50 mg/kg): 36.000 μg equivalents · h/mL
Plasma total radioactivity concentration, Mean ([2]; PO 100 mg/kg, 0 h (pre-dose)): 0.000 μg Equivalents/mL
Plasma total radioactivity concentration, Mean ([2]; PO 100 mg/kg, 0.083 h): 0.283 μg Equivalents/mL
Plasma total radioactivity concentration, Mean ([2]; PO 100 mg/kg, 0.25 h): 0.346 μg Equivalents/mL
Plasma total radioactivity concentration, Mean ([2]; PO 100 mg/kg, 0.5 h): 0.316 μg Equivalents/mL
Plasma total radioactivity concentration, Mean ([2]; PO 100 mg/kg, 0.75 h): 0.315 μg Equivalents/mL
Plasma total radioactivity concentration, Mean ([2]; PO 100 mg/kg, 4 h): 0.625 μg Equivalents/mL
Plasma total radioactivity concentration, Mean ([2]; PO 100 mg/kg, 6 h): 1.331 μg Equivalents/mL
Plasma total radioactivity concentration, Mean ([2]; PO 100 mg/kg, 10 h): 0.622 μg Equivalents/mL
Plasma total radioactivity concentration, Mean ([2]; PO 100 mg/kg, 24 h): 0.399 μg Equivalents/mL
Plasma total radioactivity concentration ([2]; PO 100 mg/kg, Group 2A, 0.25 h, 100 mg/kg): 0.216 μg Equivalents/mL and 0.433 μg Equivalents/mL and 0.474 μg Equivalents/mL and 0.260 μg Equivalents/mL
Plasma total radioactivity concentration ([2]; PO 100 mg/kg, Group 2B, 0 h (pre-dose)): 0.000 μg Equivalents/mL
Plasma total radioactivity concentration ([2]; PO 100 mg/kg, Group 2B, 0.75 h, 100 mg/kg): 0.346 μg Equivalents/mL and 0.327 μg Equivalents/mL and 0.331 μg Equivalents/mL and 0.256 μg Equivalents/mL
Plasma total radioactivity concentration ([2]; PO 100 mg/kg, Group 2B, 4 h, 100 mg/kg): 0.578 μg Equivalents/mL and 0.618 μg Equivalents/mL and 0.675 μg Equivalents/mL and 0.630 μg Equivalents/mL
Plasma total radioactivity concentration ([2]; PO 100 mg/kg, Group 2B, 6 h, 100 mg/kg): 1.157 μg Equivalents/mL and 1.163 μg Equivalents/mL and 1.522 μg Equivalents/mL and 1.480 μg Equivalents/mL
Plasma total radioactivity concentration ([2]; PO 100 mg/kg, Group 2C, 0.083 h, 100 mg/kg): 0.228 μg Equivalents/mL (2×) and 0.394 μg Equivalents/mL and 0.596 μg Equivalents/mL
Plasma total radioactivity concentration ([2]; PO 100 mg/kg, Group 2C, 0.5 h, 100 mg/kg): 0.236 μg Equivalents/mL and 0.335 μg Equivalents/mL and 0.378 μg Equivalents/mL and 0.408 μg Equivalents/mL
Plasma total radioactivity concentration ([2]; PO 100 mg/kg, Group 2C, 10 h, 100 mg/kg): 0.806 μg Equivalents/mL and 0.555 μg Equivalents/mL and 0.506 μg Equivalents/mL and 0.511 μg Equivalents/mL
Plasma total radioactivity concentration ([2]; PO 100 mg/kg, Group 2C, 24 h, 100 mg/kg): 0.450 μg Equivalents/mL and 0.303 μg Equivalents/mL and 0.458 μg Equivalents/mL and 0.384 μg Equivalents/mL
AUC0-24 of plasma total radioactivity ([2]; PO 100 mg/kg): 15.445 μg equivalents · h/mL
